Test results reported in patent US20250195444A1, “POLYMER-COATED NANOPARTICLES AND PREPARATION METHOD THEREFOR” (SCINDY PHARMACEUTICAL (SUZHOU) CO., LTD, priority 2022, published 2025).

Assays:
[1] = Safety test, maximum tolerated dose in ICR mice; assay type: in vivo; details: male ICR mice, intravenous injection, 1.5 mg/ml
From the text: The drug safety of colistin sulfate, the nanoparticles of Examples 1 and 2, and the nanoparticles of Comparative Examples 1 and 2 in mice was compared.
Test indicators: clinical observation, animal morbidity/death, and weight change. The maximum compound dosage that causes the weight loss of mice to not exceed 20% and no animal death is the maximum tolerated dose.

[2] = test system: Carbapenem-susceptible Escherichia coli (12); assay: In vitro antimicrobial susceptibility testing, broth microdilution MIC; assay type: cell-based; details: 12 strains
From the text: (§1) A total of 44 strains of clinically isolated Gram-negative bacteria were collected for antimicrobial susceptibility testing, including 12 strains of Escherichia coli (carbapenem-susceptible), 12 strains of Klebsiella pneumoniae (carbapenem-susceptible), 10 strains of Acinetobacter baumannii (carbapenem-susceptible), and 10 strains of Pseudomonas aeruginosa (carbapenem-susceptible).
(§2) According to the recommendations of the 2021 edition of the Clinical and Laboratory Standards Institute (CLSI), a broth microdilution method was used to measure the minimum inhibitory concentration (MIC) of a test substance against clinical isolates. • (1) Preparation of antimicrobial drug: The test drug was dissolved and diluted, and the control drug was dissolved and diluted according to CLSI requirements. The test concentration range of the antibacterial drug solution was 0.015 mg/L to 32 mg/L. • (2) Culture medium: Cation adjusted muellerhinton broth (CAMHB), a product of BD Company, USA, batch number: 9324795. • (3) Inoculation amount: Fresh pure colonies on Columbia blood agar were picked using a direct colony suspension method. The colonies were adjusted to a McFarland turbidity of 0.5 and then appropriately diluted. The final concentration of the test bacteria was 10^5 CFU/mL. • (4) Culture conditions: The colonies were cultured in air at 35° C.±2° C. for 16 to 20 hours. • (5) Reading and judgment of results: For colistin, according to the European EUCAST breakpoint judgment standard, a result of <2 mg/L is susceptible, and a result of >4 mg/L is resistant. The lowest antimicrobial drug concentration that inhibits bacterial growth is read as an MIC value. • (6) Quality control strains: Escherichia coli ATCC 25922 and Pseudomonas aeruginosa ATCC 27853. • (7) Data statistics: WHONET version 5.6 software was used to perform statistical analysis on the results of the antimicrobial susceptibility testing.

[3] = test system: Carbapenem-susceptible Gram-negative bacteria (44); assay: as above; assay type: cell-based; details: 44 strains
From the text: as §1, §2

[4] = test system: Carbapenem-susceptible Acinetobacter baumannii (10); assay: as above; assay type: cell-based; details: 10 strains
From the text: as §1, §2

[5] = test system: Carbapenem-susceptible Klebsiella pneumoniae (12); assay: as above; assay type: cell-based; details: 12 strains
From the text: as §1, §2

[6] = test system: Carbapenem-susceptible Pseudomonas aeruginosa (10); assay: as above; assay type: cell-based; details: 10 strains
From the text: as §1, §2

[7] = test system: HT29 cells; assay: Proliferation of HT29 cells in vitro (CCK8); assay type: cell-based; details: 72 hours of drug treatment, read-out: HT-29ReIC50
Protocol: Cell culture: HT29 (Cat. No.: CBP30001L, purchased from Cobioer) was revived and cultured with 1640+10% FBS.
Plating: Normally growing cells were digested with a trypsin cell digestion solution, then centrifuged, counted, and plated into a 96-well plate at a cell density of 3000 cells/well, 100 μL per well, for a total of 60 wells, and sealed with an appropriate amount of PBS around to prevent water evaporation in the edge wells.
Administration: The administration was performed on the second day after cell plating, 100 μL of a drug solution was added to each well, and two replicate wells were set up for each concentration point.
Detection: After 72 hours of drug treatment, all the liquid in the 96-well plate was poured out, and 100 μL of a CCK8 (diluted to 1:9 with culture medium) solution was added to each well. After incubation at 37° C. for a period of time (OD450 of Vehicle group reached above 1.0), the absorption at 450 nm was detected using an ELISA reader.
Data processing: Inhibition Rate (%)=(1−OD450Sample/OD450Vehicle)×100, where
OD450Sample is the 450 nm absorption value of the drug-treated group, and OD450Vehicle is the 450 nm absorption value of the DMSO control group. GraphPad Prism 8.0 software was used to draw an S-shaped dose-survival rate curve with a nonlinear regression model, and the IC50 value was calculated.

[8] = Safety test, maximum tolerated dose in Balb/c nude mice; details: male Balb/c nude mice, intravenous injection, 1.0 mg/ml
Protocol: Male Balb/c nude mice (purchased from Shanghai Lingchang Experimental Animal Co., Ltd.), 6 to 7 weeks old and weighing 17 g to 21 g, were given platinum cyclohexanediamine dihydrate or a platinum cyclohexanediamine dihydrate polymer-coated nanoparticle solution by intravenous injection at an administration concentration of 1.0 mg/ml. The dose volume was adjusted according to the weight of the animal. The highest dose that enables all subjects in the test to survive continuously is defined as MTD.
Animal grouping: Before starting the administration, the animals were weighed and randomly grouped according to the weight.
Test indicators: After administration, the mice were observed continuously for at least 14 days, and the observation interval and frequency were properly arranged so as to observe the occurrence of toxic reactions, recovery time, animal death time, etc. If the toxic reactions of the mice occur slowly or the mice recover slowly, the observation time should be appropriately extended.

**Q.** Which results are given for colistin sulfate?
**A.** MTD [1]: 8 mg/kg; MIC50 [2]: 0.125 µg/mL; MIC90 [2]: 0.25 µg/mL; Mode (MIC) [2]: 0.125 µg/mL; Resistance rate (%) ([2]; EUCAST breakpoint): 0%; Susceptibility rate (%) ([2]; EUCAST breakpoint): 100%; MIC50 [3]: 0.5 µg/mL; MIC90 [3]: 2 µg/mL; Mode (MIC) [3]: 0.5 µg/mL; Resistance rate (%) ([3]; EUCAST breakpoint): 0%; Susceptibility rate (%) ([3]; EUCAST breakpoint): 100%; MIC50 [4]: 0.5 µg/mL; MIC90 [4]: 0.5 µg/mL; Mode (MIC) [4]: 0.5 µg/mL; Resistance rate (%) ([4]; EUCAST breakpoint): 0%; Susceptibility rate (%) ([4]; EUCAST breakpoint): 100%; MIC50 [5]: 0.5 µg/mL; MIC90 [5]: 0.5 µg/mL; Mode (MIC) [5]: 0.5 µg/mL; Resistance rate (%) ([5]; EUCAST breakpoint): 0%; Susceptibility rate (%) ([5]; EUCAST breakpoint): 100%; MIC50 [6]: 1 µg/mL; MIC90 [6]: 2 µg/mL; Mode (MIC) [6]: 2 µg/mL; Resistance rate (%) ([6]; EUCAST breakpoint): 0%; Susceptibility rate (%) ([6]; EUCAST breakpoint): 100%

**Q.** What does the source list for “platinum cyclohexanediamine dihydrate [Cyclohexanediamine platinum dihydrate]”?
**A.** IC50 [7]: 1610 ± 230 nM; MTD [8]: <4 mpk
